Test results reported in US12441730B2, “PRMT5 inhibitors” (Merck Sharp & Dohme LLC, priority 2019, dated 2025).
Where two headings read alike, the source gives them in different places.

Tests used:
[1] = biological target: T1, Full-length (FL)-PRMT5-MEP50 enzyme complex (Homo sapiens, UniProt O14744); experiment: PRMT5-MEP50 Enzyme Methylation Assay (Version A); assay type: biochemical
T1 construct: Full-length (FL)-PRMT5-MEP50 enzyme complex (recombinant proteins from baculovirus-transfected Sf21 cells: FL-PRMT5; MW=73837 kDa and FL-MEP50; MW=38614); made in house; host or cells: baculovirus-transfected Sf21 cells
How it was run: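 Compound was pre-incubated with enzyme for 60 min, then reacted 150 min at 37° C. at final 1.0 nM PRMT5-MEP50, 15 μM SAM and 75 nM biotinylated H4R3(Me1) peptide, in 50 mM Bicine pH 8.0 with 1% DMSO. SAMDI mass-spectrometric readout of Me1→Me2 conversion. EC50 from 4- or 7-parameter regression.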

[2] = test system: symmetric dimethylation of arginine (SDMA) of PRMT5 substrates in MCF-7 cells; experiment: PRMT5 Cell Target Engagement (TE) Assay; assay type: cell-based; conditions: 3 days treatment, SDMA high content imaging
How it was run: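 Readout is single-cell nuclear symmetric-dimethylarginine immunofluorescence (Alexa488), normalized to DMSO-treated cells. Compounds were applied to MCF-7 cells for 3 days at 37 °C, top concentration 10000 nM in 1:3 steps over ten points; curves fitted with 4-parameter robust fit.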

[3] = second value of 7 parameter biphasic fit, read-out: Enzyme Methylation Assay Version A (EC50 2)
[4] = single EC50 = 4 parameter single site sigmoidal fit, EC50 1 = first value of 7 parameter biphasic fit, read-out: Enzyme Methylation Assay Version A (EC50 or EC50 1)

T1 sequence (O14744 whole entry): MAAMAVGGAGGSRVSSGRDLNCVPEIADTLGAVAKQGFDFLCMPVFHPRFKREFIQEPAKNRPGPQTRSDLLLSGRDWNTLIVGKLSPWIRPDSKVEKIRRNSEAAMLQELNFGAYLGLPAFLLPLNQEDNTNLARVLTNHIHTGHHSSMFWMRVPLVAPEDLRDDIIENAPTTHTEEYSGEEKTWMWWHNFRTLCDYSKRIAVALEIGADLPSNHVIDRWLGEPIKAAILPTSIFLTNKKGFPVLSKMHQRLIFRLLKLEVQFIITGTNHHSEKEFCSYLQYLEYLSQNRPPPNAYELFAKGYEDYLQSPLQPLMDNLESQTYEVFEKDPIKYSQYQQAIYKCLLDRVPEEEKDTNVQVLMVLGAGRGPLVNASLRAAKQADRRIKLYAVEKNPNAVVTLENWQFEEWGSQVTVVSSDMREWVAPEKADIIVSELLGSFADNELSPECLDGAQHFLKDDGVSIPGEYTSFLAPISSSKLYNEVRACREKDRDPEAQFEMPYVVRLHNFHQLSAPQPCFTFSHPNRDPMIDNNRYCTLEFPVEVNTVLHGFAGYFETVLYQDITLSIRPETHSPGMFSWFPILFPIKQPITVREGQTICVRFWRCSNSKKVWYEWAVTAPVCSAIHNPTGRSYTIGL
T1 sequence (Q9BQA1 whole entry partner): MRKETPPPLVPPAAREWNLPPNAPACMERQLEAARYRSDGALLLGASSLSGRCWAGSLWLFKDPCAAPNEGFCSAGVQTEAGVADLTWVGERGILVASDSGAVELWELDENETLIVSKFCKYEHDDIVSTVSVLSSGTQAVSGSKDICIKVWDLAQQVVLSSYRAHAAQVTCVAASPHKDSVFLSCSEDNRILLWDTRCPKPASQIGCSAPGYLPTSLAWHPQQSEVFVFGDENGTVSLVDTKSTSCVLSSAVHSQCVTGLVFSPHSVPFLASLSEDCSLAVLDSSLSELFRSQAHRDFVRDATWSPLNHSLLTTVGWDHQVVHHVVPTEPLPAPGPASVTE

Row | Structure (SMILES) | EC50 [1, 3] [nM] | EC50 [1, 4] [nM] | EC50 ([2]; Homo sapiens, MCF7, 72 h) [nM] | EC50 [2] [nM]
1 | O=C(c1ccc2c(O)c(CC(F)(F)F)cnc2c1)N1CC[C@]2(Cc3ccccc3CN2)[C@H](O)C1 [Example 153, ((3R,3′R)-3′-hydroxy-1,4-dihydro-2H-spiro[isoquinoline-3,4′-piperidin]-1′-yl)(4-hydroxy-3-(2,2,2-trifluoroethyl)quinolin-7-yl)methanone] | 2950 | 4.3 | 414 | –
2 | COC(C)(C)c1ccc2nc(C(=O)N3CC[C@]4(Cc5ccccc5CN4)[C@H](O)C3)cn2c1 (stereo in doubt) [Example 46, (3′-hydroxy-2,4-dihydro-1H-spiro[isoquinoline-3,4′-piperidin]-1′-yl)(6-(2-methoxypropan-2-yl)imidazo[1,2-a]pyridin-2-yl)methanone] | 138 | 0.498 | 27.1 | –
3 | O=C(c1cn2cccc(Cl)c2n1)N1CC[C@]2(Cc3ccccc3CN2)[C@H](O)C1 [Example 206, (8-chloroimidazo[1,2-a]pyridin-2-yl)[(3R,3′R)-3′-hydroxy-1,4-dihydro-1′H,2H-spiro[isoquinoline-3,4′-piperidin]-1′-yl]methanone] | 7240 | 4.33 | 363 | –
4 | CO[C@H](C)c1cc(N2Cc3ncsc3C2)cn2cc(C(=O)N3CC[C@]4(Cc5ccccc5CN4)[C@H](O)C3)nc12 [Example 235, {6-(4,6-dihydro-5H-pyrrolo[3,4-d][1,3]thiazol-5-yl)-8-[(1R)-1-methoxyethyl]imidazo[1,2-a]pyridin-2-yl}[(3R,3′R)-3′-hydroxy-1,4-dihydro-1′H,2H-spiro[isoquinoline-3,4′-piperidin]-1′-yl]methanone] | – | 20.6 | 62.7 | –
5 | Cc1nc(C)c(-c2cnc3nc(C(=O)N4CC[C@]5(Cc6ccccc6CN5)[C@H](O)C4)cn3c2)s1 [Example 79, [6-(2,4-dimethyl-1,3-thiazol-5-yl)imidazo[1,2-a]pyrimidin-2-yl][(3R,3′R)-3′-hydroxy-1,4-dihydro-1′H,2H-spiro[isoquinoline-3,4′-piperidin]-1′-yl]methanone] | – | 1.08 | 5.3 | –
6 | Cc1cnc2nc(C(=O)N3CC[C@]4(Cc5ccccc5CN4)[C@H](O)C3)cn2c1 [Example 120, [(3R,3′R)-3′-hydroxy-1,4-dihydro-1′H,2H-spiro[isoquinoline-3,4′-piperidin]-1′-yl](6-methylimidazo[1,2-a]pyrimidin-2-yl)methanone] | 351 | 0.499 | 28.8 | –
7 | O=C(c1ccc2c(O)c(C3CC3)cnc2c1)N1CC[C@]2(Cc3ccccc3CN2)[C@H](O)C1 [Example 9, (3-cyclopropyl-4-hydroxyquinolin-7-yl)((3R,3’R)-3′-hydroxy-1,4-dihydro-1′H,2H-spiro[isoquinoline-3,4′-piperidin]-1′-yl)methanone] | 4680 | 13.5 | 694 | –
8 | O=C(c1cn2cc(Br)cc(C(O)C(F)(F)F)c2n1)N1CC[C@]2(Cc3ccccc3CN2)[C@H](O)C1 (single isomer, unassigned) [Example 30, (6-bromo-8-((R or S)-2,2,2-trifluoro-1-hydroxyethyl)imidazo[1,2-a]pyridin-2-yl)((3R,3’R)-3′-hydroxy-1,4-dihydro-2H-spiro[isoquinoline-3,4′-piperidin]-1′-yl)methanone] | 99.4 | 0.584 | 3.62 | –
9 | CC(O)c1cc(C(F)(F)F)cn2cc(C(=O)N3CC[C@]4(Cc5ccccc5CN4)[C@H](O)C3)nc12 (single isomer, unassigned) [Example 109] | 126 | 0.276 | – | 8.28
10 | Cc1cn2cc(C(=O)N3CC[C@]4(Cc5ccccc5CN4)[C@H](O)C3)nc2nc1C [Example 126, (6,7-dimethylimidazo[1,2-a]pyrimidin-2-yl)[(3R,3′R)-3′-hydroxy-1,4-dihydro-1′H,2H-spiro[isoquinoline-3,4′-piperidin]-1′-yl]methanone] | 5010 | 7.15 | 399 | –
11 | COC[C@@H]1C[C@H](C(F)(F)F)Cn2cc(C(=O)N3CC[C@]4(Cc5ccccc5CN4)[C@H](O)C3)nc21 (single isomer, unassigned) [Example 156] | 15800 | 42.7 | 642 | –

More lines, now with the values ahead:

Row | EC50 [1, 3] [nM] | EC50 [1, 4] [nM] | EC50 ([2]; Homo sapiens, MCF7, 72 h) [nM] | EC50 [2] [nM] | Structure (SMILES)
12 | – | 5 | 67.3 | – | CO[C@H](C)c1cc(N2CCn3nccc32)cn2cc(C(=O)N3CC[C@]4(Cc5ccccc5CN4)[C@H](O)C3)nc12 [Example 232, {6-(2,3-dihydro-1H-imidazo[1,2-b]pyrazol-1-yl)-8-[(1R)-1-methoxyethyl]imidazo[1,2-a]pyridin-2-yl}[(3R,3′R)-3′-hydroxy-1,4-dihydro-1′H,2H-spiro[isoquinoline-3,4′-piperidin]-1′-yl]methanone]
13 | – | 1390 | 2090 | – | Cc1nc2ncc(C(=O)N3CC[C@]4(Cc5ccccc5CN4)[C@H](O)C3)n2cc1Br [Example 140, (6-bromo-7-methylimidazo[1,2-a]pyrimidin-3-yl)[(3R,3′R)-3′-hydroxy-1,4-dihydro-1′H,2H-spiro[isoquinoline-3,4′-piperidin]-1′-yl]methanone]
14 | 339 | 0.682 | 17.2 | – | COCc1cc(C)cn2cc(C(=O)N3CC[C@]4(Cc5ccccc5CN4)[C@H](O)C3)nc12 [Example 113, ((3R,3′R)-3′-hydroxy-1,4-dihydro-2H-spiro[isoquinoline-3,4′-piperidin]-1′-yl)(8-(methoxymethyl)-6-methylimidazo[1,2-a]pyridin-2-yl)methanone]
15 | – | 1.27 | 4.25 | – | COc1cccnc1-c1cc([C@@H](C)OC)c2nc(C(=O)N3CC[C@]4(Cc5ccccc5CN4)[C@H](O)C3)cn2c1 [Example 238, [(3R,3′R)-3′-hydroxy-1,4-dihydro-1′H,2H-spiro[isoquinoline-3,4′-piperidin]-1′-yl]{8-[(1R)-1-methoxyethyl]-6-(3-methoxy-2-pyridinyl)imidazo[1,2-a]pyridin-2-yl}methanone]
16 | – | 0.409 | – | 2.28 | CC1(C)CC1(C#N)c1cnc2nc(C(=O)N3CC[C@]4(Cc5ccccc5CN4)[C@H](O)C3)cn2c1 (single isomer, unassigned) [Example 147]
17 | 2040 | 7.12 | 30.2 | – | O=C(c1cnc2ncc(Br)cn12)N1CC[C@]2(Cc3ccccc3CN2)[C@H](O)C1 [Example 25, (6-bromoimidazo[1,2-a]pyrimidin-3-yl)((3R,3’R)-3′-hydroxy-1,4-dihydro-1′H,2H-spiro[isoquinoline-3,4′-piperidin]-1′-yl)methanone]
18 | – | 0.613 | 3.33 | – | CO[C@H](C)c1cc(-c2cccnc2C)cn2cc(C(=O)N3CC[C@]4(Cc5ccccc5CN4)[C@H](O)C3)nc12 [Example 239, [(3R,3′R)-3′-hydroxy-1,4-dihydro-1′H,2H-spiro[isoquinoline-3,4′-piperidin]-1′-yl]{8-[(1R)-1-methoxyethyl]-6-(2-methyl-3-pyridinyl)imidazo[1 2-a]pyridin-2-yl}methanone]
19 | 3240 | 5.35 | 24.9 | – | O=C(c1cn2cc(Br)ncc2n1)N1CC[C@]2(Cc3ccccc3CN2)[C@H](O)C1 [Example 42, (6-bromoimidazo[1,2-a]pyrazin-2-yl)((3R,3’R)-3′-hydroxy-1,4-dihydro-2H-spiro[isoquinoline-3,4′-piperidin]-1′-yl)methanone]
20 | 403 | 0.421 | 9.81 | – | CC(C)(O)c1cc(Br)cn2cc(C(=O)N3CC[C@]4(Cc5ccccc5CN4)[C@H](O)C3)nc12 [Example 47, (6-bromo-8-(2-hydroxypropan-2-yl)imidazo[1,2-a]pyridin-2-yl)((3R,3’R)-3′-hydroxy-1,4-dihydro-2H-spiro[isoquinoline-3,4′-piperidin]-1′-yl)methanone]
21 | 292 | 0.846 | 25.7 | – | Cc1cc(I)c2nc(C(=O)N3CC[C@]4(Cc5ccccc5CN4)[C@H](O)C3)cn2c1 [Example 203, [(3R,3′R)-3′-hydroxy-1,4-dihydro-1′H,2H-spiro[isoquinoline-3,4′-piperidin]-1′-yl](8-iodo-6-methylimidazo[1,2-a]pyridin-2-yl)methanone]
22 | – | 20.2 | 6100 | – | CN1CCn2cc(C(=O)N3CC[C@]4(Cc5ccccc5CN4)[C@H](O)C3)nc2C1 [Example 59, [(3R,3′R)-3′-hydroxy-1,4-dihydro-1′H,2H-spiro[isoquinoline-3,4′-piperidin]-1′-yl](7-methyl-5,6,7,8-tetrahydroimidazo[1,2-a]pyrazin-2-yl)methanone]
23 | – | 3.69 | 76.2 | – | CO[C@H](C)c1cc(N(C)CCn2ccnc2C)cn2cc(C(=O)N3CC[C@]4(Cc5ccccc5CN4)[C@H](O)C3)nc12 [Example 233, [(3R,3′R)-3′-hydroxy-1,4-dihydro-1′H,2H-spiro[isoquinoline-3,4′-piperidin]-1′-yl](8-[(1R)-1-methoxyethyl]-6-{methyl[2-(2-methyl-1H-imidazol-1-yl)ethyl]amino}imidazo[1,2-a]pyridin-2-yl)methanone]
24 | 16000 | 70 | 224 | – | O=C(c1ccn(CC(F)(F)F)c(=O)c1)N1CC[C@]2(Cc3ccccc3CN2)[C@H](O)C1 [Example 45, 4-((3R,3′R)-3′-hydroxy-1,4-dihydro-2H-spiro[isoquinoline-3,4′-piperidine]-1′-carbonyl)-1-(2,2,2-trifluoroethyl)pyridin-2(1H)-one]
